The test system of one data set is human plasma clots. In words: Nanoparticle binding to plasma clots in vitro. The protocol:
(§1) Phage and nanoparticle binding to clots. Phage binding to clotted plasma proteins was determined as described (Pilch 2006). CREKA-SPIO and control SPIO were added to freshly formed plasma clots in the presence or absence of free CREKA peptide. After 10 min incubation, the clots were washed 4 times in PBS, transferred to a new tube and digested in 100 μl concentrated nitric acid. The digested material was diluted in 2 ml distilled water and the iron concentration was determined using inductively coupled plasma-optical emission spectroscopy (ICP-OES, PerkinElmer, Norwalk, Conn.).

For the next data set, the system named is mouse plasma clots. In words: Nanoparticle binding to plasma clots in vitro. The procedure: as §1
Data set [1] in a line: Nanoparticle clearance (blood half-life). The class given is in vivo, mouse. The protocol:
Nanoparticle injections. For intravenous injections, the animals were anesthetized with intraperitoneal Avertin, and liposomes (2 μmol DSPC) and/or nanoparticles (1-4 mg Fe/kg body weight) were injected into the tail vein. The animals were sacrificed 5-24 h post-injection by cardiac perfusion with PBS under anesthesia, and organs were dissected and analyzed for particle homing. To suppress liver macrophages, mice were intravenously injected with liposomal clodronate suspension (100 μl per mouse), and the mice were used for experiments 24 hours later. Nanoparticle clearance. Heparinized capillaries were used to draw 50 μA of blood from the periorbital plexus at different times after nanoparticle injection, the blood was centrifuged at 300 g for 2 min, and a 10 μA aliquot of platelet-rich plasma was diluted into 600 μl 1M Tris solution, pH 8.4. Fluorescence was determined on a PerkinElmer (Norwalk, Conn.) LS50B spectrofluorometer, and plotted as a function of the time the particles had circulated.

The test system of data set [2] is MDA-MB-435 human breast cancer xenograft tumors. Kind of data set: Nanoparticle/liposome tumor homing and clotting in tumor vessels. The class given is in vivo, mouse. The protocol: Nanoparticle injections. For intravenous injections, the animals were anesthetized with intraperitoneal Avertin, and liposomes (2 μmol DSPC) and/or nanoparticles (1-4 mg Fe/kg body weight) were injected into the tail vein. The animals were sacrificed 5-24 h post-injection by cardiac perfusion with PBS under anesthesia, and organs were dissected and analyzed for particle homing. To suppress liver macrophages, mice were intravenously injected with liposomal clodronate suspension (100 μl per mouse), and the mice were used for experiments 24 hours later.
Intravital microscopy. Tumor blood flow in MDA-MB 435 xenograft-bearing mice was observed by intravital microscopy. Mice were pre-injected with Ni-liposomes and 5×10^8 of DiI-labeled erythrocytes. A skin flap was moved aside to expose the tumors, and the mice were intravenously injected with 4 mg/kg of fluorescein-CREKA-SPIO (time “0”). The tumors were scanned with IV-100 intravital laser scanning microscope (Olympus Corp., Tokyo, Japan) using an IV-OB35F22W29 MicroProbe objective (Olympus Corp., Tokyo, Japan). Movies were recorded at 10 min intervals up to 120 min post-injection.
Magnetic measurements of the tissue samples using Superconducting Quantum Interference Device (SQUID) magnetometer. Tissue samples were frozen immediately upon collection, lyophilized, weighed, and placed in gelatin capsules. The capsules were inserted into the middle of transparent plastic straws for magnetic measurements made using a Quantum Design MPMS2 SQUID magnetometer (San Diego, Calif.) operated at 150 K. The samples were exposed to direct current magnetic fields in stepwise increments up to one Tesla. Corrections were made for the diamagnetic contribution of tissue, capsule and straw.

The subject of data set [3] is 22Rv1 orthotopic human prostate cancer tumors. In words: Homing and clotting of peptide-coated iron oxide nanoworms/SPIO. The class given is in vivo, mouse. The conditions noted are these: intravenous, Example 2. The protocol:
To analyze NW biodistribution, mice bearing orthotopic 22Rv1 tumors were injected into the tail vein (5 mg of iron per kg body weight). In homing experiments, the mice were euthanized 5-6 hours after the injection by cardiac perfusion with PBS under anesthesia, and organs were dissected and analyzed for particle homing. In tumor treatment experiments, nude mice bearing 2 week-old 22Rv-1 or LAPC9 orthotopic xenografts (typically about 200-250 mm^3 in tumor volume) were intravenously injected with NW in 150 μl PBS or PBS as a control. The NW were injected every other day for 14 days. The total cumulative dose was 35 mg iron/kg. At the end of the treatment, the mice were perfused with PBS under anesthesia, and the tumors were harvested. Tumor volume was calculated using the following formula: volume (mm3)=(d2×D)/2, where d and D are the smallest and largest tumor diameters, respectively. […] The primary antibodies were detected with Alexa 647 goat anti-rat, and 647 donkey anti-goat secondary antibodies (1:1000; Molecular Probes, Eugene, Oreg.). […] The primary antibody was detected with biotinylated anti-mouse IgG and Vectastain ABC kit (Vector Laboratories, Burlingame, Calif.). […] To quantify the homing area of fibrin(ogen) within tumors the stained section were scanned with the Scanscope CM-1 scanner and analyzed with the ImageScope software41 (Aperio Technologies, Vista, Calif.).

Data set [4] deals with MDA-MB-435 human breast cancer xenografts. In words: Tumor homing of intravenously injected fluorescent CREKA peptide. The class given is in vivo, mouse. From the text: (§2) CREKA peptide. A tumor-homing peptide was used to construct targeted nanoparticles. […] The most frequently represented peptide sequence in the selected phage preparation was CREKA (cys-arg-glu-lys-ala; SEQ ID NO:1). The CREKA peptide was synthesized with a fluorescent dye attached to the N-terminus and the in vivo distribution of the peptide was studied in tumor-bearing mice. […] The peptide formed a distinct meshwork in the tumor stroma (FIG. 5), and it also highlighted the blood vessels in the tumors.
(§3) Phage screening, tumors and peptides. In vivo screening of a peptide library with the general structure of CX7C (SEQ ID NO: 4), where C is cysteine and X is any amino acid, was carried out as described (Oh 2004) using 65- to 75-day-old transgenic MMTV PyMT mice (Hutchinson 2000). These mice express the polyoma virus middle T antigen (MT) under the transcriptional control of the mouse mammary tumor virus (MMTV), leading to the induction of multi-focal mammary tumors in 100% of carriers. MDA-MB-435 tumors in nude mice and peptide synthesis have been described (Laakkonen 2002; Laakkonen 2004). B16F1 murine melanoma tumors were grown in fibrinogen null mice (Suh 1995) and their normal littermates and used when they reached 0.5-1 cm in size (Pilch 2006).

The subject of a further data set is PyMT tumors. Described as above. Conditions: intravenous; fluorescent dye at N-terminus; minutes to hours after the injection. The class given is in vivo, mouse.
From the text: as §2, §3

Another data set has as its system B16F1 melanomas. Kind of data set: CREKA peptide homing in fibrinogen null mice and normal littermates. The class given is in vivo, mouse. The conditions noted are these: intravenous. The procedure:
Tumors contain a meshwork of clotted plasma proteins in the tumor stroma and the walls of vessels, but no such meshwork is detectable in normal tissues (Dvorak 1985; Abe 1999; Pilch 2006). The mesh-like pattern produced by the CREKA peptide in tumors prompted the study of whether clotted plasma proteins can be the target of this peptide. The peptide was tested in fibrinogen knockout mice, which lack the fibrin meshwork in their tumors. […] Its structure makes it an attractive peptide to use in nanoparticle targeting because, unlike other clot-binding peptides, which are cyclic 10 amino-acid peptides (Pilch 2006), CREKA is linear and contains only 5 amino acids. Moreover, the sulfhydryl group of the single cysteine residue is not required to provide binding activity and can be used to couple the peptide to other moieties.
Phage screening, tumors and peptides. In vivo screening of a peptide library with the general structure of CX7C (SEQ ID NO: 4), where C is cysteine and X is any amino acid, was carried out as described (Oh 2004) using 65- to 75-day-old transgenic MMTV PyMT mice (Hutchinson 2000). These mice express the polyoma virus middle T antigen (MT) under the transcriptional control of the mouse mammary tumor virus (MMTV), leading to the induction of multi-focal mammary tumors in 100% of carriers. […]

For data set [5], the system named is orthotopic 22Rv1 xenograft tumors. In words: In vivo homing of FAM-labeled CREKA and methylated CREKA peptides. Set-up: species or system mouse. The procedure: Tumor accumulation of CREKA peptide and its N-methylated and C-methylated variants. The accumulation of N-methylated and C-methylated derivatives of CREKA was measured in mice bearing orthotropic 22Rv-1 xenograft tumors. The mice were intravenously injected with 200 μg of FAM-conjugated CREKA or methylated CREKA peptides derivatives. The peptides were allowed to circulate for 3 hrs. The mice were then perfused through the heart with PBS, and organs were collected and the fluorescence was measured under UV light. The fluorescence was analyzed with Image J software. Most N/C-methylated CREKA analogs produced stronger fluorescence compared to the unmodified CREKA. […] In FIG. 10B the enhanced fluorescence of CR(NMe)EKA is shown in the tumor compared to both CREKA and C(NMe)REKA peptide. It is shown that FAM-labeled CREKA peptide in which the glutamic acid is N-methylated accumulates in tumor tissue more strongly than unmodified CREKA.
Orthotopic prostate cancers were used when they reached 0.5-1 cm in size. Synthetic peptides labeled with fluorescein (approximately 200 μg) were intravenously injected into tumor-bearing mice and allowed to circulate for 15 minutes to 3 hours. The mice were perfused with PBS through the heart under anesthesia, and tissues were collected and observed under UV light (Illumatool Bright Light System LT-9900, Lightools Research, Encinitas, Calif.), and then processed for immunofluorescence or immunohistochemistry.

A short description of data set [6]: Peptide stability in vivo (NW-bound peptide recovered from blood, mass spectrometry). Also on record: species or system mouse. The protocol: The peptides were conjugated with a linker that bridges the NW and a cysteine residue on the peptide, forming a disulfide with the OPSS group. The peptide-coated NW were injected into animals, and blood was collected 15 minutes and 3 hours after the injection. The plasma was separated and NW were collected by ultracentrifugation (100,000×g for 10 minutes at 4° C.). Proteins bound to the NW were removed by incubation with glycine-HCl, pH 2.8 on a magnetic LS columns (MACS separation columns, Miltenyi Biotec, Bergisch Gladbach, Germany). The peptides were cleaved from the NW by incubating with 10 mM dithiothreitol for 30 minutes at room temperature. The iron oxide was separated from the peptide by ultracentrifugation (100,000×g for 10 minutes at 4° C.) and the supernatant fractions containing the peptide were analyzed by matrix-assisted laser desorption ionization-time of flight (MALDI-TOF) mass spectrometry.

A further data set concerns the target plasma clots. Kind of data set: Binding to plasma clots (affinity). Conditions: data not shown.
Setting [7] is: intravenous, no decoy pretreatment.

Where no end group is shown, it is not given here. FAM = 5(6)-carboxyfluorescein; Ahx = NCCCCCC(=O)O

The Kd is the free concentration of one partner at which half of the binding sites on the other are occupied at equilibrium, for simple one-to-one binding.

In the case of “CREKA-SPIO: fluorescein-labeled CREKA coupled onto 50 nm superparamagnetic amino dextran-coated iron oxide nanoparticles (not fully specified (N-terminus); also: conjugated to dextran-coated superparamagnetic iron oxide nanoparticles (SPIO))”, the “binding to plasma clots” value in the data set on human plasma clots was “bound to mouse and human plasma clots”. In the data set with mouse plasma clots, the “binding to plasma clots” value was “bound to mouse and human plasma clots”. Besides, the “prolongation in particle half-life” value in data set [1] (after depleting RES macrophages with liposomal clodronate) is approximately 5 fold. Also, the “blood half-life and tumor homing after decoy particles” value in data set [1] (plain liposomes as decoy particles) is recorded as “prolonged the blood half-life”. The “whole-body scan tumor signal” value in [2] (Cy7-labeled, near infrared) is “effectively accumulated in tumors”. Moreover, the “intravital confocal microscopy of tumor blood vessels” value in data set [2] (DiI-labeled erythrocytes as flow marker, 4 mg/kg) is “time-dependent clot formation and obstruction of blood flow”. Besides, in data set [2] (SQUID tumor magnetization and fluorescence signal), the “accumulation in Ni-liposome-pretreated compared to PBS-pretreated mice” value is “about 6 fold”. The “reduction of tumor accumulation by heparin” value in [2] (SQUID, heparin prior to injection) is given as “more than 50%”. In addition, in data set [2] (after liposome pretreatment), the “tumor vessel lumens filled with fluorescent masses (occlusion)” value is reported as “up to 20%”. For the same substance, in data set [2] (anti-CD41 monoclonal antibody), the “effect of thrombocytopenia on homing” value was “no noticeable effect”. Also, in data set [2] (heparin pretreatment), the “heparin effect on intravascular clotting” value is given as “essentially eliminated” and the “heparin effect on number of vessels with nanoparticles bound to the vessel walls” value is “did not significantly reduce”. Moreover, in [2] (setting [7]), the accumulation in tumor result was “did not accumulate effectively” and the “particles in reticuloendothelial system (RES) tissues” value was “high concentration of particles”. Moreover, the “tumor homing after Ni-liposome pretreatment” value in data set [2] (pretreatment 5 min or 48 h prior) is reported as “greatly increased the tumor homing”. Besides, the “localization of nanoparticle-induced clotting” value in [2] (tumor versus kidneys, lungs, liver) is on record as “essentially confined to tumor vessels”. Moreover, the tumor homing entry in data set [3] is reported as “effectively home to 22Rv-1 tumors”.
As for “cys-arg-glu-lys-ala ({FAM-Ahx}-CREKA; not fully specified; printed as cys-arg-glu-lys-ala)”, the “whole animal imaging: elimination and liver accumulation” value in [4] (30 μg Alexa Fluor 647-labeled CREKA, 6 hours) is “excreted into the urine and does not accumulate in the liver”. For the same substance, the “CREKA peptide detection in tumors” value in data set [4] (intravenous, fluorescent dye at N-terminus, minutes to hours after the injection) was “readily detectable”; with PyMT tumors, “readily detectable”. Moreover, the “CREKA peptide detection in normal tissues” value in [4] (intravenous, fluorescent peptide) is reported as “essentially undetectable”. The “accumulation in tumors grown in fibrinogen null mice” value in the data set on B16F1 melanomas (fibrinogen null mice) is recorded as “failed to accumulate”. The “accumulation in tumors grown in normal littermates” value in the data set with B16F1 melanomas (normal littermates of the null mice) was “formed a brightly fluorescent meshwork”. The “effect of free peptide on CREKA-SPIO binding to clotted plasma proteins” value in the data set with mouse plasma clots (FIG. 1D) is listed as “inhibited”. Further, the “fluorescence in the tumors” value in [5] (30 minutes after the injection) is “equally strong fluorescence”. Also, the “decrease of tumor fluorescence” value in data set [5] (after 3 hours) is 70%. Besides, in data set [6] (after 15 minutes of circulation), the “peptide abundance in blood samples” value was “equally abundant”. For the same substance, in [6] (after 3 hours), the “peptide in blood samples” value was “undetectable”. At plasma clots, this substance returned a Kd of 6 µM.

For the origin of these results see patent US8912136B2, “Methods and compositions related to clot-binding compounds” (Sanford-Burnham Medical Research Institute, priority 2009, dated 2014).
